The IC50 is the concentration that gives 50% inhibition. A high value points to weaker potency. The EC50 is the concentration at which the effect is half-maximal. A high value points to a need for much substance.

Molecules are shown by their SMILES. Read-outs that look alike come from different tables or passages of the source.

The target in assay [1] is T1, GLP-1R (Homo sapiens, UniProt P43220). The conditions noted are these: for Effect on binding of GLP-1 to GLP-1R (in words): radiolabeled GLP-1, WT GLP-1R.
Experimental: (§1) For homogeneous binding, cells were washed twice and incubated with a blocking buffer (F12 supplemented with 33 mM HEPES, and 0.1% (w/v) BSA, pH 7.4) for 2 h at 37 °C. […] Cells were washed three times with ice-cold PBS and lysed using 50 μL of lysis buffer (PBS supplemented with 20 mM Tris–HCl and 1% Triton X-100, pH 7.4). Subsequently, the plates were counted for radioactivity (counts per minute, CPM) in a scintillation counter (MicroBeta^2 Plate Counter, PerkinElmer, Waltham, MA, USA) using a scintillation cocktail (OptiPhaseSuperMix; PerkinElmer, Waltham, MA, USA).
Assay [2] has as its target T1, GLP-1R. The conditions noted are these: for Modulation of GLP-1-elicited cAMP accumulation / GLP-1 potency (in words): GLP-1R expressing CHO-K1 cells. A general note: cAMP levels reflect the balance of adenylyl cyclase and phosphodiesterase activity.
Experimental: (§2) cAMP accumulation was measured using the LANCE Ultra cAMP kit (PerkinElmer, Boston, MA, USA) according to the manufacturer’s instructions. […] Cells were then resuspended with assay buffer (DMEM, 0.1% BSA, 5 mM HEPES) and seeded onto 384-well plates (6 × 10^5/mL, 5 μL/well). […] After the addition of 5 μL of Eu-cAMP tracer and ULight-anti-cAMP, the reactions were stopped. The plates were left for 1 h at room temperature to measure time-resolved FRET signals at excitation wavelengths of 620 nm and 665 nm by EnVision (PerkinElmer, Waltham, MA, USA).
Assay [3] deals with T1, GLP-1R. Briefly: cell-based.
Experimental: as §1
The target in assay [4] is T1, GLP-1R. The assay is described as follows: cell-based. This is another data set of the same source.
Experimental: as §2
In assay [5] the target is T2, GLP-1R C347F mutant (Homo sapiens, UniProt P43220, C347F).
T2 construct: expressed in transfected cells
Briefly: Whole cell binding assay, competition with radiolabeled GLP-1 at mutant GLP-1R.
Experimental: as §1

Assay [6] deals with T2, GLP-1R C347F mutant. To be noted: cited from earlier work.
[7] abbreviates: Table 3, PAMs, competition with 125I-GLP-1 (40 pM), whole cells.
The mark [8] stands for this setting: Table 3, PAMs from LBVS, relative to maximal response of GLP-1 at WT receptor.
[9] abbreviates: Table 4, analogues of new PAMs, competition with 125I-GLP-1.
Setting [10] is: Table 1, NAMs, competition with 125I-GLP-1 (40 pM), whole cells.
The mark [11] stands for this setting: Table 1, NAMs from SBVS, relative to maximal response of GLP-1 at WT receptor.

T1 sequence (P43220 24-463): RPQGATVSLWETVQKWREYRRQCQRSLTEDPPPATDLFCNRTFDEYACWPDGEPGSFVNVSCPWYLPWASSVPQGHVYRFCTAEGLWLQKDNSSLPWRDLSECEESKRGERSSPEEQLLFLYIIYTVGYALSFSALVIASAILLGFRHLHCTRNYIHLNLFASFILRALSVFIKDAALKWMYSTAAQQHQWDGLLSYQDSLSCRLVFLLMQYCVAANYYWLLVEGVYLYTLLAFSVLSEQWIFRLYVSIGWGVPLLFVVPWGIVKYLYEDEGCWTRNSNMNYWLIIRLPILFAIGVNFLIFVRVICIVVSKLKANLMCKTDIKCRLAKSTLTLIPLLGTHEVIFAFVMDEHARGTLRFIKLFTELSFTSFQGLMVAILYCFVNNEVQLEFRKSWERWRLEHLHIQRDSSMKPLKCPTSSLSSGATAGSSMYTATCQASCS
T2 sequence (P43220 24-463 C347F): as the sequence (P43220 24-463) above, with C324F counted along it

As for `O=C(Cn1c(COc2ccccc2)nc2ccccc21)Nc1ccc(Cc2nnn[nH]2)cc1` [C10], in assay [1] (setting [7]), the “Binding Span ± SEM” value was 76.17 ± 16.21. The “cAMP Accumulation Emax (% WT)” value in assay [2] (setting [8]) is reported as 92.93 ± 4.4 % WT.

`CN(CC(=O)N1CCC(C(=O)O)CC1)C(=O)c1cccn1CCc1ccccc1` [C11] gave an IC50 in assay [3] of 8.91 µM. Further, in assay [1] (setting [7]), the “Binding Span ± SEM” value is on record as −46.37 ± 5.83. Besides, in assay [2], the “Modulation of GLP-1-elicited cAMP accumulation / GLP-1 potency (in words)” value is reported as “positively modulated GLP-1 potency”.

Take `CCOc1ccc(S(=O)(=O)Nc2ccccc2C(=O)OCC(=O)Nc2cc(C)on2)cc1` [C13]: the “cAMP Accumulation Emax (% WT)” value in assay [2] (setting [8]) was determined as 76.6 ± 6.24 % WT.

Consider `COc1ccccc1NS(=O)(=O)c1cc(NC(=O)c2ccc(=O)n(C)n2)ccc1N1CCCC1` [C22], for which the “Binding Span ± SEM” value in assay [1] (setting [7]) was −135.7 ± 8.4. The “cAMP Accumulation Emax (% WT)” value in assay [2] (setting [8]) was found to be 96.9 ± 4.56 % WT.

Consider `Cc1ccc(-c2nn(-c3ccccc3)cc2C(=O)Nc2cccc(-n3cnnn3)c2)o1` [C23], for which, in assay [1] (setting [7]), the “Binding Span ± SEM” value is on record as “N.B. ^d” and the “Binding pIC50 ± SEM” value is reported as “N.B. ^d”. Further, the “Modulation of GLP-1-elicited cAMP accumulation / GLP-1 potency (in words)” value in assay [2] is “positively modulated GLP-1 potency”. Moreover, the “cAMP Accumulation Emax (% WT)” value in assay [2] (setting [8]) is 98.5 ± 3.6 % WT. Also, the EC50 in assay [4] was 15.8 µM.

Turning to `COc1ccc(NC(=O)c2n[nH]c3ccc([N+](=O)[O-])cc23)cc1NS(=O)(=O)c1ccc(F)cc1` [C26], the “Binding Span ± SEM” value in assay [1] (setting [7]) is listed as −82.09 ± 13.44. In addition, the “cAMP Accumulation Emax (% WT)” value in assay [2] (setting [8]) is 89.4 ± 3.72 % WT.

`O=C(CSc1nnc[nH]1)Nc1sc2c(c1C(=O)NCc1ccccc1)CCCC2` [C31]: the “Binding Span ± SEM” value in assay [1] (setting [7]) is recorded as −102.5 ± 6.85. In addition, the “cAMP Accumulation Emax (% WT)” value in assay [2] (setting [8]) is recorded as 91.0 ± 0.95 % WT.

`Cc1ccc(NS(=O)(=O)c2ccc(NC(=O)c3n[nH]c4c3COc3ccccc3-4)cc2)cc1` [CD1652-A009] showed an IC50 in assay [3] of 4.07 µM. In addition, the “Binding Span ± SEM” value in assay [1] (setting [9]) came to 51.92 ± 9.60. In addition, in assay [2] (Table 4, analogues of new PAMs), the “cAMP Accumulation Emax (% WT)” value came out at 114.9 ± 8.6 % WT.

Consider `CCC(C)N(CC(=O)N(Cc1cccn1Cc1ccccc1)C1CCCCC1)C(=O)C1CCC1` (stereo not drawn) [CD3532-B002], for which, in assay [1] (setting [9]), the “Binding Span ± SEM” value is recorded as “N.B. ^c” and the “Binding pIC50 ± SEM” value was “N.B. ^c”. Moreover, the “cAMP Accumulation Emax (% WT)” value in assay [2] (Table 4, analogues of new PAMs) is recorded as 92.2 ± 3.9 % WT. This molecule gave an EC50 in assay [4] of 15.8 µM.

As for `CCCCN(CC(=O)N(Cc1cccn1Cc1ccccc1)C1CC1)C(=O)C1CCCC1` [CD3559-D005], in assay [1] (setting [9]), the “Binding Span ± SEM” value was 35.25 ± 11.50. Further, the “cAMP Accumulation Emax (% WT)” value in assay [2] (Table 4, analogues of new PAMs) was determined as 78.2 ± 13.6 % WT.

As for `COc1ccc(S(=O)(=O)Nc2cccc(C(=O)Nc3cc(C)on3)c2)cc1` [JK1719-D011], the “Binding Span ± SEM” value in assay [1] (setting [9]) is reported as 59.69 ± 15.13. In addition, the “Effect on binding of GLP-1 to GLP-1R (in words)” value in assay [1] is “weakened the ligand binding”. Also, the “cAMP Accumulation Emax (% WT)” value in assay [2] (Table 4, analogues of new PAMs) was found to be 126.1 ± 4.2 % WT.

Take `O=C(O)c1cccc(NN=Cc2cn(-c3ccccc3)nc2-c2cc3ccccc3o2)c1` [Z21]: the “Binding Span ± SEM” value in assay [1] (setting [10]) was 75.3 ± 12.57. Also, the “Effect on binding of GLP-1 to GLP-1R (in words)” value in assay [1] was “decreased the binding of GLP-1 to GLP-1R”. Moreover, the “Modulation of GLP-1-elicited cAMP accumulation / GLP-1 potency (in words)” value in assay [2] is “negatively modulated”. The “cAMP Accumulation Emax (% WT)” value in assay [2] (setting [11]) came to 97.02 ± 0.81 % WT.

Take `O=C(Nc1ccc(Cl)cc1)Nc1snnc1C(=O)Nc1ccc(C(=O)O)cc1` [Z42]: in assay [5], the “Binding at C347F mutant (in words)” value is reported as “enhanced the ligand binding”. In addition, in assay [1] (setting [10]), the “Binding Span ± SEM” value is on record as “N.B. ^d” and the “Binding pIC50 ± SEM” value is recorded as “N.B. ^d”. Further, the “Modulation of GLP-1-elicited cAMP accumulation / GLP-1 potency (in words)” value in assay [2] is reported as “negatively modulated”. The “cAMP Accumulation Emax (% WT)” value in assay [2] (setting [11]) is 99.72 ± 0.80 % WT.

Consider `CC(C)(C)Nc1nc2cc(Cl)c(Cl)cc2nc1S(C)(=O)=O` [compound 2, 6,7-dichloro-3-methanesulfonyl-2-tert-butylamino-quinoxaline], for which the “Binding at C347F mutant (in words)” value in assay [6] was “abolishment”.

Values taken from article PMC8301998, “Discovery of Novel Allosteric Modulators Targeting an Extra-Helical Binding Site of GLP-1R Using Structure- and Ligand-Based Virtual Screening” (Biomolecules, 2021).
